# Several values for one entry are separate records, joined by “and”; a condition that tells them apart may be missing. Identical values can stand only once. Like-named read-outs stand apart in the source and are kept apart here.
# Legend:
# Fusarium graminearum = experiment: microbe, parasite or virus in culture; type: cell-based; conditions: for Average Fungal Colony Diameter F.g / Growth Inhibition Rate F.g: sensitive strains
# leaf blight [1] = type: in vivo, wheat
# powdery mildew [2] = type: in vivo, wheat
# [3] = type: in vivo, wheat
# wheat scab [4] = type: in vivo
# leaf blight [5] = type: in vivo, wheat; conditions: Preparation 100 g/mu; Jinggangmycin 0, Tebuconazole 20 g ai. agent/mu
# Fusarium asiaticum = experiment: microbe, parasite or virus in culture; type: cell-based; conditions: for Average Fungal Colony Diameter F.a / Growth Inhibition Rate F.a: sensitive strains
# rust [6] = type: in vivo, wheat; conditions: Preparation 100 g/mu; Jinggangmycin 0, Tebuconazole 20 g ai. agent/mu
# powdery mildew [7] = type: in vivo, wheat; remark: listed apart in the source
# [8] = type: in vivo, wheat; remark: listed apart in the source
# powdery mildew [9] = type: in vivo, wheat; conditions: Preparation 100 (mL/mu); Jinggangmycin 0, Tebuconazole 20 g ai. agent/mu
# powdery mildew [10] = type: in vivo, wheat; conditions: dosage g ai./mu: c1 Jinggangmycin, c2 Tebuconazole of the line
# powdery mildew [11] = type: in vivo, wheat; conditions: Preparation 100 g/mu; Jinggangmycin 0, Tebuconazole 20 g ai. agent/mu
# powdery mildew [12] = type: in vivo, wheat; remark: listed apart in the source
# wheat scab [13] = type: in vivo; remark: listed apart in the source
# wheat scab [14] = type: in vivo; conditions: Preparation 100 (mL/mu); Jinggangmycin 0, Tebuconazole 20 g ai. agent/mu
# [15] = system: carbendazim-resistant Fusarium asiaticum; experiment: microbe, parasite or virus in culture; type: cell-based; conditions: for DON Biosynthesis Inhibition Rate / Toxin Production Capability: Jinggangmycin + Tebuconazole 0 + 0.1 μg/ml
# rust [16] = type: in vivo, wheat; conditions: Preparation 100 (mL/mu); Jinggangmycin 0, Tebuconazole 20 g ai. agent/mu
# leaf blight [17] = type: in vivo, wheat; conditions: Preparation 100 (mL/mu); Jinggangmycin 0, Tebuconazole 20 g ai. agent/mu
# leaf blight [18] = type: in vivo, wheat; remark: listed apart in the source
# [19] = system: Fusarium graminearum and Fusarium asiaticum; experiment: organism not typed; type: cell-based
# rust [20] = type: in vivo, wheat
# leaf blight [21] = type: in vivo, wheat; remark: listed apart in the source
# powdery mildew [22] = type: in vivo, wheat; remark: listed apart in the source
# wheat scab [23] = type: in vivo; remark: listed apart in the source
# wheat scab [24] = type: in vivo; conditions: Preparation 50 g/mu; Tebuconazole 10 g ai. agent/mu
# rust [25] = type: in vivo, wheat; remark: listed apart in the source
# rust [26] = type: in vivo, wheat; remark: listed apart in the source
# wheat scab [27] = type: in vivo; conditions: Preparation 100 g/mu; Jinggangmycin 0, Tebuconazole 20 g ai. agent/mu
# [28] = Preparation 15 g/mu, Tebuconazole 3 g ai. agent/mu
# [29] = Preparation 37.5 g/mu, Tebuconazole 7.5 g ai. agent/mu
# [30] = Preparation 50 g/mu, Tebuconazole 10 g ai. agent/mu
# [31] = Tebuconazole 2.0 g ai. agent/mu
# [32] = Tebuconazole 4.0 g ai. agent/mu
# [33] = Tebuconazole 6.0 g ai. agent/mu
# [34] = Tebuconazole 7.5 g ai. agent/mu
# [35] = Tebuconazole 8.8 g ai. agent/mu
# [36] = Tebuconazole 9.5 g ai. agent/mu
# [37] = Tebuconazole 12.0 g ai. agent/mu
# [38] = Tebuconazole 15.0 g ai. agent/mu
# [39] = Tebuconazole 17.5 g ai. agent/mu
# [40] = Tebuconazole 19.0 g ai. agent/mu
# [41] = Preparation 22.5 g/mu, Tebuconazole 4.5 g ai. agent/mu
# [42] = Preparation 30 g/mu, Tebuconazole 6 g ai. agent/mu
substance,measurement,setting,value
Tebuconazole,Median Effective Concentration (EC50) for Growth Inhibition,Fusarium graminearum; F.g sensitive strains,0.096 µg/mL
same,Average Fungal Colony Diameter F.g,Fusarium graminearum; Tebuconazole 0.02 μg/mL,42 mm
same,Growth Inhibition Rate F.g,Fusarium graminearum; Tebuconazole 0.02 μg/mL,34.2%
same,Average Fungal Colony Diameter F.g,Fusarium graminearum; Tebuconazole 0.078 μg/mL,32 mm
same,Growth Inhibition Rate F.g,Fusarium graminearum; Tebuconazole 0.078 μg/mL,47.5%
same,Average Fungal Colony Diameter F.g,Fusarium graminearum; Tebuconazole 0.3125 μg/mL,21 mm
same,Growth Inhibition Rate F.g,Fusarium graminearum; Tebuconazole 0.3125 μg/mL,72.1%
same,Average Fungal Colony Diameter F.g,Fusarium graminearum; Tebuconazole 5.0 μg/mL,9 mm
same,Growth Inhibition Rate F.g,Fusarium graminearum; Tebuconazole 5.0 μg/mL,88.0%
same,Disease Index Prevention Effect % Leaf Blight,leaf blight [1]; [28],65.4%
same,Disease Index Prevention Effect % Leaf Blight,leaf blight [1]; [29],68.5%
same,Disease Index Prevention Effect % Leaf Blight,leaf blight [1]; [30],64.5%
same,Disease Index Prevention Effect % Powdery Mildew,powdery mildew [2]; [28],68.1%
same,Disease Index Prevention Effect % Powdery Mildew,powdery mildew [2]; [29],73.5%
same,Disease Index Prevention Effect % Powdery Mildew,powdery mildew [2]; [30],82.4%
same,Thousand Kernel Weight,[3]; [28],40 g
same,Thousand Kernel Weight,[3]; [29],41.5 g
same,Thousand Kernel Weight,[3]; [30],40.8 g
same,Disease Index Prevention Effect % Head Blight,wheat scab [4]; [31],12.9%
same,Disease Index Prevention Effect % Head Blight,wheat scab [4]; [32],25.6%
same,Disease Index Prevention Effect % Head Blight,wheat scab [4]; [33],42.5%
same,Disease Index Prevention Effect % Head Blight,wheat scab [4]; [34],56.7%
same,Disease Index Prevention Effect % Head Blight,wheat scab [4]; [35],61.5%
same,Disease Index Prevention Effect % Head Blight,wheat scab [4]; [36],65.4%
same,Disease Index Prevention Effect % Head Blight,wheat scab [4]; [37],68.4%
same,Disease Index Prevention Effect % Head Blight,wheat scab [4]; [38],71.8%
same,Disease Index Prevention Effect % Head Blight,wheat scab [4]; [39],73.9%
same,Disease Index Prevention Effect % Head Blight,wheat scab [4]; [40],74.2%
same,Disease Index Prevention Effect % Leaf Blight,leaf blight [5],84.2%
same,Median Effective Concentration (EC50) for Growth Inhibition,Fusarium asiaticum; F.a carbendazim-resistant strains,0.116 µg/mL
same,Median Effective Concentration (EC50) for Growth Inhibition,Fusarium asiaticum; F.a phenamacril-resistant strains,0.111 µg/mL
same,Median Effective Concentration (EC50) for Growth Inhibition,Fusarium asiaticum; F.a sensitive strains,0.102 µg/mL
same,Average Fungal Colony Diameter F.a,Fusarium asiaticum; Tebuconazole 0.02 μg/mL,43 mm
same,Growth Inhibition Rate F.a,Fusarium asiaticum; Tebuconazole 0.02 μg/mL,32.9%
same,Average Fungal Colony Diameter F.a,Fusarium asiaticum; Tebuconazole 0.078 μg/mL,34 mm
same,Growth Inhibition Rate F.a,Fusarium asiaticum; Tebuconazole 0.078 μg/mL,48.8%
same,Average Fungal Colony Diameter F.a,Fusarium asiaticum; Tebuconazole 0.3125 μg/mL,22 mm
same,Growth Inhibition Rate F.a,Fusarium asiaticum; Tebuconazole 0.3125 μg/mL,70.8%
same,Average Fungal Colony Diameter F.a,Fusarium asiaticum; Tebuconazole 5.0 μg/mL,9 mm
same,Growth Inhibition Rate F.a,Fusarium asiaticum; Tebuconazole 5.0 μg/mL,88.0%
same,Disease Index Prevention Effect % Rust,rust [6],98.5%
same,Disease Index Prevention Effect % Powdery Mildew,powdery mildew [7]; Tebuconazole 6 g ai. agent/mu,62.4%
same,Disease Index Prevention Effect % Powdery Mildew,powdery mildew [7]; Tebuconazole 9 g ai. agent/mu,70.8%
same,Disease Index Prevention Effect % Powdery Mildew,powdery mildew [7]; Tebuconazole 15 g ai. agent/mu,76.4%
same,Disease Index Prevention Effect % Powdery Mildew,powdery mildew [7]; Tebuconazole 21 g ai. agent/mu,81.6%
same,Thousand Kernel Weight,[8]; Tebuconazole 6 g ai. agent/mu,40.5 g
same,Thousand Kernel Weight,[8]; Tebuconazole 9 g ai. agent/mu,41.5 g
same,Thousand Kernel Weight,[8]; Tebuconazole 15 g ai. agent/mu,42 g
same,Thousand Kernel Weight,[8]; Tebuconazole 21 g ai. agent/mu,42.7 g
same,Disease Index Prevention Effect % Powdery Mildew,powdery mildew [9],88.2%
same,Disease Index Prevention Effect % Powdery Mildew,powdery mildew [10],72.61% and 76.19% and 66.32% and 39.46%
same,Disease Index Prevention Effect % Powdery Mildew,powdery mildew [11],96.2%
same,Disease Index Prevention Effect % Powdery Mildew,powdery mildew [12]; [31],15.4%
same,Disease Index Prevention Effect % Powdery Mildew,powdery mildew [12]; [32],28.5%
same,Disease Index Prevention Effect % Powdery Mildew,powdery mildew [12]; [33],36.4%
same,Disease Index Prevention Effect % Powdery Mildew,powdery mildew [12]; [34],58.2%
same,Disease Index Prevention Effect % Powdery Mildew,powdery mildew [12]; [35],60.5%
same,Disease Index Prevention Effect % Powdery Mildew,powdery mildew [12]; [36],65.2%
same,Disease Index Prevention Effect % Powdery Mildew,powdery mildew [12]; [37],76.5%
same,Disease Index Prevention Effect % Powdery Mildew,powdery mildew [12]; [38],74.5%
same,Disease Index Prevention Effect % Powdery Mildew,powdery mildew [12]; [39],76.4%
same,Disease Index Prevention Effect % Powdery Mildew,powdery mildew [12]; [40],81.2%
same,Disease Index Prevention Effect % Head Blight,wheat scab [13]; Tebuconazole 6 g ai. agent/mu,53.4%
same,Disease Index Prevention Effect % Head Blight,wheat scab [13]; Tebuconazole 9 g ai. agent/mu,65.8%
same,Disease Index Prevention Effect % Head Blight,wheat scab [13]; Tebuconazole 15 g ai. agent/mu,70.4%
same,Disease Index Prevention Effect % Head Blight,wheat scab [13]; Tebuconazole 21 g ai. agent/mu,76.8%
same,Disease Index Prevention Effect % Head Blight,wheat scab [14],84.6%
same,DON Biosynthesis Inhibition Rate,[15]; 7 days,4.2%
same,Toxin Production Capability,[15]; 7 days,87.42 μgDON/g by dry weight of hyphae
same,DON Biosynthesis Inhibition Rate,[15]; 14 days,0.6%
same,Toxin Production Capability,[15]; 14 days,52.50 μgDON/g by dry weight of hyphae
same,inhibitory effect on toxin biosynthesis capability versus blank control,"[15]; tebuconazole 0.1 μg/ml, seven and fourteen days",does not have significant inhibitory effects
same,Disease Index Prevention Effect % Rust,rust [16],82.4%
same,Disease Index Prevention Effect % Leaf Blight,leaf blight [17],83.6%
same,Disease Index Prevention Effect % Leaf Blight,leaf blight [18]; Tebuconazole 6 g ai. agent/mu,64.5%
same,Disease Index Prevention Effect % Leaf Blight,leaf blight [18]; Tebuconazole 9 g ai. agent/mu,70.1%
same,Disease Index Prevention Effect % Leaf Blight,leaf blight [18]; Tebuconazole 15 g ai. agent/mu,72.4%
same,Disease Index Prevention Effect % Leaf Blight,leaf blight [18]; Tebuconazole 21 g ai. agent/mu,73.5%
same,activity of tebuconazole relative to carbendazim (by EC50),[19]; sensitive strains,about 4.5 times
same,activity of tebuconazole relative to phenamacril (by EC50),[19]; sensitive strains,about 1.5 times
same,inhibition rate on the hyphal growth of the head blight fungi,[19]; tebuconazole 0.1 μg/ml alone,about 50%
same,Disease Index Prevention Effect % Rust,rust [20]; Tebuconazole 6 g ai. agent/mu,61.5%
same,Disease Index Prevention Effect % Rust,rust [20]; Tebuconazole 9 g ai. agent/mu,72.6%
same,Disease Index Prevention Effect % Rust,rust [20]; Tebuconazole 15 g ai. agent/mu,78.3%
same,Disease Index Prevention Effect % Rust,rust [20]; Tebuconazole 21 g ai. agent/mu,86.1%
same,Disease Index Prevention Effect % Leaf Blight,leaf blight [21]; [31],14.5%
same,Disease Index Prevention Effect % Leaf Blight,leaf blight [21]; [32],19.2%
same,Disease Index Prevention Effect % Leaf Blight,leaf blight [21]; [33],29.5%
same,Disease Index Prevention Effect % Leaf Blight,leaf blight [21]; [34],71.2%
same,Disease Index Prevention Effect % Leaf Blight,leaf blight [21]; [35],73.1%
same,Disease Index Prevention Effect % Leaf Blight,leaf blight [21]; [36],74.2%
same,Disease Index Prevention Effect % Leaf Blight,leaf blight [21]; [37],76.5%
same,Disease Index Prevention Effect % Leaf Blight,leaf blight [21]; [38],78.9%
same,Disease Index Prevention Effect % Leaf Blight,leaf blight [21]; [39],80.3%
same,Disease Index Prevention Effect % Leaf Blight,leaf blight [21]; [40],81.2%
same,Disease Index Prevention Effect % Powdery Mildew,powdery mildew [22]; [28],48.7%
same,Disease Index Prevention Effect % Powdery Mildew,powdery mildew [22]; [41],60.4%
same,Disease Index Prevention Effect % Powdery Mildew,powdery mildew [22]; [42],64.9%
same,Disease Index Prevention Effect % Powdery Mildew,powdery mildew [22]; [29],72.4%
same,Disease Index Prevention Effect % Head Blight,wheat scab [23]; [41],48.2%
same,Disease Index Prevention Effect % Head Blight,wheat scab [23]; [42],53.9%
same,Disease Index Prevention Effect % Head Blight,wheat scab [24],72.4%
same,Disease Index Prevention Effect % Rust,rust [25]; [31],18.0%
same,Disease Index Prevention Effect % Rust,rust [25]; [32],32.1%
same,Disease Index Prevention Effect % Rust,rust [25]; [33],45.2%
same,Disease Index Prevention Effect % Rust,rust [25]; [34],71.5%
same,Disease Index Prevention Effect % Rust,rust [25]; [35],78.4%
same,Disease Index Prevention Effect % Rust,rust [25]; [36],80.5%
same,Disease Index Prevention Effect % Rust,rust [25]; [37],81.8%
same,Disease Index Prevention Effect % Rust,rust [25]; [38],85.6%
same,Disease Index Prevention Effect % Rust,rust [25]; [39],89.4%
same,Disease Index Prevention Effect % Rust,rust [25]; [40],92.8%
same,Disease Index Prevention Effect % Rust,rust [26]; [28],64.5%
same,Disease Index Prevention Effect % Rust,rust [26]; [29],75.6%
same,Disease Index Prevention Effect % Rust,rust [26]; [30],82.4%
same,Disease Index Prevention Effect % Head Blight,wheat scab [27],80.1%

# Reference: patent US10588316B2 (priority 2015, dated 2020)
